{
  "source": "patent US20020002202A1",
  "about": "“Use of fumarate salt of L-carnitine or its alkanoyl derivatives in ischaemia” (priority 1998, published 2002)",
  "key": {"Perfused Heart": {"test_system": "Perfused Heart", "experiment": "low-pressure or low-flow ischemia model, perfused heart (Langendorff)", "source_text": "In this example, the low-pressure or low-flow ischemia model was used, which is a model recognised as valid for cardiac ischemia (Bolukoglu, H. et al. Am. J. Physiol. 1996: 270; H817-26).\nThe treatment schedule is illustrated in FIG. 1, in which the letters A-F denote the heart effluent sampling times for the measurement of metabolites. The hearts are removed from the animals and mounted on a Langerdorff appliance. The perfusion medium replacing the blood was a Krebs-Heinsleit standard bicarbonate buffer containing glucose 12 mM as energy source for cardiac metabolism.\nAfter 30 minute perfusion at a pressure of 100 cm of water, ischemia was induced by reducing the perfusion pressure of the heart to 25 cm of water, thus reducing coronary flow from approximately 2 ml/min to approximately 0.3 ml/min. Reduction of the perfusion pressure gives rise to ischemia, since the heart will pump the fluid in the low-perfusion area rather than via the coronary bloodstream, supplying the flow to the heart.\nThis control model was compared with hearts perfused with L-carnitine 10 mM or L-carnitine fumarate 10 mM.\nCardiac function was tested in three different ways.\nIn the first, the NRM ^31P signal was monitored in real time.\nThis signal provides the best indication of the energy status of the heart.\nIn the second, the haemodynamics of the heart was measured by means of a pressure transducer mounted to measure the perfusion pressure. The haemodynamic measurements include heart rate, relative dP/dt (measurement of the contraction force of the heart) and the cardiac contraction amplitude. Coronary flow was also measured as an indicator of the heart's ability to provide oxygen and energy for its own metabolism.\nIn the third type of test, the metabolites and the enzyme LDH released by the heart were analysed in the effluent. The release of LDH indicates damage to cardiac tissue. The release of metabolites by the heart was tested by means of mass spectrometry coupled with gas chromatography.\nThe procedures of example 1 were substantially repeated, with the addition of a treatment with carnitine alone as a further control."}, "[1]": {"settings": "amount equivalent to the exogenous L-carnitine required; cited from earlier work"}, "[2]": {"settings": "heart effluent, GC-MS, low-flow ischemia, 10 mM, vs control hearts"}},
  "note": "Entries after “also recorded” stand apart in the source; their conditions may differ.",
  "data": [
    {"compound": "C[N+](C)(C)C[C@H](O)CC(=O)[O-]", "note": "[L-carnitine]", "values": [
      {"measurement": "ATP phosphate peaks (alpha, beta, gamma)", "setting": "Perfused Heart; 31P NMR, FIG. 2, after 40 minutes of ischemia, Example 2", "value": "lacking"},
      {"measurement": "gastrointestinal disorders (increased volume and fluidity of faeces and frequency of bowel movements)", "setting": "[1]", "value": "caused"}
    ]},
    {"compound": "L-carnitine acid fumarate [L-carnitine fumarate]", "values": [
      {"measurement": "reserves of high-energy phosphate (creatine phosphate observed at NMR)", "setting": "Perfused Heart; 31P NMR, after 45 minutes of ischemia, 10 mM, vs control hearts", "value": "greater"},
      {"measurement": "succinate released by the heart", "setting": "Perfused Heart; heart effluent, FIG. 3, as compared to lactate, Example 2", "value": "low amount"},
      {"measurement": "lactate released by the heart", "setting": "Perfused Heart; [2]", "value": "less and reduction"},
      {"measurement": "release of malate", "setting": "Perfused Heart; [2]", "value": "more"},
      {"measurement": "release of LDH", "setting": "Perfused Heart; heart effluent, low-flow ischemia, 10 mM in perfusion medium, vs control hearts", "value": "reduced; also recorded: affords protection against ischemic damage"},
      {"measurement": "coronary flow", "setting": "Perfused Heart; postischemic, 10 mM, vs control hearts", "value": "greater"},
      {"measurement": "postischemic cardiac contraction amplitude", "setting": "Perfused Heart; pressure transducer, 10 mM, vs control hearts", "value": "greater"},
      {"measurement": "gastrointestinal disorders (increased volume and fluidity of faeces and frequency of bowel movements)", "setting": "[1]", "value": "eliminated"}
    ]},
    {"compound": "C[N+](C)(C)C[C@H](O)CC(=O)[O-].O=C(O)C(O)C(O)C(=O)O", "note": "[L-carnitine L-tartrate]", "values": [
      {"measurement": "gastrointestinal disorders (increased volume and fluidity of faeces and frequency of bowel movements)", "setting": "[1]", "value": "caused"}
    ]}
  ]
}
